“Also recorded” adds a separate entry of the source.
What was measured:
HLO [1] = test: HLO survival, 800 μM OA treated HLO (3D cell titer glo); type: cell-based, human; conditions: 800 μM OA + FGF19 40 ng/ml, same time point
Experimental: LPS and FFA exposure and OCA and FGF19 treatment. 20-30 hLOHLO, which had been isolated from Matrigel and washed by 1×PBS, were divided into each condition and cultured on an ultra-low attachment 6 multi-well plates (Corning). HLO were cultured with LPS (Sigma), OA (Sigma), LA (Sigma), SA (Sigma), or PA (Sigma) and collected at day 1 and 3 (for LPS HLO) and at day 3 and 5 (for OA) after the culture. To test the inhibitory effect of OCA (INT-747, MedChem Express, NJ, USA) and human FGF19 recombinant (Sigma) on HLO, 20-30 HLO were cultured in HCM media in the presence or absence of oleic acid (800 μM), and 1 μM OCA and 40 ng/ml FGF19 were added into 800 μM OA condition. HLO were collected at day 3 for lipids live-cell imaging and at day 5 for stiffness measurement.
HLO survival assay. HLO were collected from Matrigel and washed by 1×PBS. 30-40 organoids were cultured on an ultra-low attachment 6 multi-well plate (Corning). HLO were captured on The KEYENCE BZ-X710 Fluorescence Microscope every day. The surviving and dead organoids were counted manually from the photo. HLO with a rounded configuration was counted as the surviving while the organoids with out of shape is counted as dead. To assess the survival rate of OA treated HLO at the same time point, 3D cell titer glo assay was used (Promega, Wi, USA).

HLO [2] = test: HLO survival assay, Intralipid exposed HLO (PNALD model); type: cell-based; conditions: added to 400 μM Intralipid exposed HLO (PNALD-HLO); FGF19 40 ng/ml
From the text: PNALD is an iatrogenic fatty liver disease which occurs frequently in infants provided with parental nutrition (PN) solutions employing a lipid emulsion (Intralipid) that provide life-sustaining calories in the setting of inadequate absorption of enteral nutrients (Kumar and Teckman, 2015; Orso et al., 2016). PNALD has a histological evidence of steatosis, cell death (apoptosis), and fibrosis (Nandivada et al., 2013). To recapitulate PNALD pathology in HLO, we reconstituted components of Intralipid and placed it directly into HLO culture.
[…]; Kumar and Teckman, 2015; Neuschwander-Tetri et al., 2015). To implicate the therapeutic significance of OCA and FGF19 for PNALD like pathology in HLO, OCA and FGF19 were added to 400 μM Intralipid exposed HLO. […] Mechanistically, the accumulation of reactive oxygen species (ROS) is strongly associated with the fatty liver related hepatocyte death (Nandivada et al., 2013; Tsedensodnom and Sadler, 2013). We thus wondered whether OCA and FGF19 would inhibit the production of ROS so we sought to confirm that theory with live-cell imaging with CellROX dye. […]. […]
HLO survival assay. […] HLO were captured on The KEYENCE BZ-X710 Fluorescence Microscope every day. The surviving and dead organoids were counted manually from the photo. HLO with a rounded configuration was counted as the surviving while the organoids with out of shape is counted as dead. […]

HLO [3] = test: ROS live-cell imaging with CellROX dye in HLO; type: cell-based, human; conditions: for ROS production: 400 μM Intralipid treated HLO, live-cell imaging, CellROX
From the text: Because there are no established ameliorative strategies, and PNALD is the leading indication for liver transplantation in infants (El Kasmi et al., 2013), we further investigated preventive and therapeutic effects of FXR agonist obeticholic acid (OCA) and FGF19 hormone that are activated by OCA, which have shown great potential in nonalcoholic steatohepatitis treatment (Dash et al., 2017; Kumar and Teckman, 2015; Neuschwander-Tetri et al., 2015). To implicate the therapeutic significance of OCA and FGF19 for PNALD like pathology in HLO, OCA and FGF19 were added to 400 μM Intralipid exposed HLO. […] Mechanistically, the accumulation of reactive oxygen species (ROS) is strongly associated with the fatty liver related hepatocyte death (Nandivada et al., 2013; Tsedensodnom and Sadler, 2013). We thus wondered whether OCA and FGF19 would inhibit the production of ROS so we sought to confirm that theory with live-cell imaging with CellROX dye.
Phagocyte, lipids, ROS live-cell imaging. After being cultured in an ultra-low attachment 6 multi-well plate, 5-10 HLO were picked up and seeded in a Microslide 8 Well Glass Bottom plate (Ibidi, WI, USA) and subjected to live-cell staining. The following antibodies were used: pHrodo® Red S. aureus Bioparticles® Conjugate for Phagocyte activity (Thermo Fisher Scientific Inc.), BODIPY® 493/503 for lipids (Thermo Fisher Scientific Inc.), Di-8-ANEPPS for membrane (Thermo Fisher Scientific Inc.), and CellROX green reagent for ROS detection (Thermo Fisher Scientific Inc.). Nuclear staining was marked by NucBlue Live ReadyProbes Reagent (Thermo Fisher Scientific Inc.). […] The final lipid droplet volume was calculated by IMARIS8 and normalized by each organoid size. Significance testing for lipid droplet volume and ROS production (%) was conducted by Student's t-test.

HLO [4] = test: HLO stiffness measurement by AFM; type: cell-based, human
Experimental: To further determine whether OCA and FGF19 have an impact on fibrosis, HLO stiffness was assessed. Organoid damage induced by Intralipid is extremely significant and treated HLOs for 5 days are not able to be stabilized on a dish, which is a minimal requirement for assessing the rigidity by AFM. To circumvent this limitation, the stiffness was assessed at Day3.
LPS and FFA exposure and OCA and FGF19 treatment. 20-30 hLOHLO, which had been isolated from Matrigel and washed by 1×PBS, were divided into each condition and cultured on an ultra-low attachment 6 multi-well plates (Corning). […]
HLO stiffness measurement by AFM. […] The AFM head with a silicon nitride cantilever (CSC37, k=0.3 N/m, MikroMasch, Bulgaria) was mounted on a fluorescence stereo microscope (M205 FA, Leica, Germany) coupled with a Z-axis piezo stage (JPK CellHesion module, JPK Instruments, Germany), which allows the indentation measurement up to the depth of ˜100 μm. […] The sample dish was then placed onto the AFM stage, and force-distance curves in a 14×14 matrix in a 25×25 μm square were measured from each HLO. Finally, Young's moduli (E, Pa) of HLOs were determined by fitting the obtained force-distance curves with the modified Hertz model (Sneddon, 1965). […]

Compound | survival of 800 μM OA HLO (HLO [1]) | number of surviving organoids (HLO [2]) | ROS production (HLO [3]) [%] | effect on ROS production caused by 400 μM Int (HLO [3]; 400 μM Intralipid, FGF19 40 ng/ml) | stiffness of OA treated HLO (AFM) (HLO [4]; 800 μM OA + FGF19 40 ng/ml) | progression of fibrosis (HLO stiffness) (HLO [4]; Intralipid treated HLO, stiffness assessed at Day3)
FGF19: human FGF19 recombinant (Sigma); hormone activated by OCA | significantly improved | ~78% | 30 | inhibit the ROS production | significantly softened; also recorded: decreased | reduce the progression of fibrosis
CC[C@H]1[C@@H](O)[C@@H]2[C@H](CC[C@]3(C)[C@@H]([C@H](C)CCC(=O)O)CC[C@@H]23)[C@@]2(C)CC[C@@H](O)C[C@@H]12 [OCA, obeticholic acid, reference compound] | – | around 83% | 20 | – | – | –
